“And” between values parts separate entries of the source, which are not always exact repeats. Identical values can stand only once. Inconclusive results and toxic doses are left out. Cut-off read from the data, not from the text of the source: active = T/C of 150% or more; inactive = T/C below 125%.
Tested on: L1210 leukemia ip in BDF1 mice, survival T/C
Assay: NCI In Vivo Anticancer Drug Screen. Data for tumor model L1210 Leukemia (intraperitoneal) in B6D2F1 (BDF1) mice
Conditions: endpoint: mean survival time, higher = longer survival
Outline: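 Read-out is survival time, reported as the treated-group measurement over the vehicle-control measurement.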

[1] = dose: 100.0 mg/kg/injection, schedule: Q01DX001 (ip), vehicle: other
[2] = dose: 100.0 mg/kg/injection, schedule: Q01DX009 (ip), vehicle: saline with Tween-80
[3] = dose: 100.0 mg/kg/injection, schedule: Q04DX003 (ip), vehicle: other
[4] = dose: 200.0 mg/kg/injection, schedule: Q01DX001 (ip), vehicle: other
[5] = dose: 200.0 mg/kg/injection, schedule: Q01DX009 (ip), vehicle: saline with Tween-80
[6] = dose: 200.0 mg/kg/injection, schedule: Q04DX003 (ip), vehicle: other
[7] = dose: 400.0 mg/kg/injection, schedule: Q01DX001 (ip), vehicle: other
[8] = dose: 400.0 mg/kg/injection, schedule: Q01DX009 (ip), vehicle: saline with Tween-80
[9] = dose: 400.0 mg/kg/injection, schedule: Q04DX003 (ip), vehicle: other
[10] = dose: 50.0 mg/kg/injection, schedule: Q01DX009 (ip), vehicle: saline
[11] = dose: 100.0 mg/kg/injection, schedule: Q01DX009 (ip), vehicle: saline
[12] = dose: 50.0 mg/kg/injection, schedule: Q04DX003 (ip), vehicle: Klucel (hydroxypropylcellulose) (HPC)
[13] = dose: 100.0 mg/kg/injection, schedule: Q01DX009 (ip), vehicle: Klucel (hydroxypropylcellulose) (HPC)
[14] = dose: 100.0 mg/kg/injection, schedule: Q04DX003 (ip), vehicle: Klucel (hydroxypropylcellulose) (HPC)
[15] = dose: 200.0 mg/kg/injection, schedule: Q01DX009 (ip), vehicle: Klucel (hydroxypropylcellulose) (HPC)
[16] = dose: 200.0 mg/kg/injection, schedule: Q04DX003 (ip), vehicle: Klucel (hydroxypropylcellulose) (HPC)
[17] = dose: 400.0 mg/kg/injection, schedule: Q04DX003 (ip), vehicle: Klucel (hydroxypropylcellulose) (HPC)
[18] = dose: 100.0 mg/kg/injection, schedule: Q04DX003 (ip), vehicle: saline with Tween-80
[19] = dose: 25.0 mg/kg/injection, schedule: Q01DX009 (ip), vehicle: Klucel (hydroxypropylcellulose) (HPC)
[20] = dose: 50.0 mg/kg/injection, schedule: Q01DX009 (ip), vehicle: Klucel (hydroxypropylcellulose) (HPC)
[21] = dose: 200.0 mg/kg/injection, schedule: Q04DX003 (ip), vehicle: saline with Tween-80
[22] = dose: 400.0 mg/kg/injection, schedule: Q04DX003 (ip), vehicle: saline with Tween-80
[23] = dose: 100.0 mg/kg/injection, schedule: Q01DX001 (ip), vehicle: saline
[24] = dose: 200.0 mg/kg/injection, schedule: Q01DX001 (ip), vehicle: saline

Measured: T/C

O=C(NO)N/N=C/c1ccccc1
inactive: [1] 104 % of control | [2] 104 % of control | [3] 113 % of control | [4] 98 % of control | [5] 107 % of control | [6] 95 % of control | [7] 98 % of control | [8] 110 % of control | [9] 93 % of control

CCCCCCCCCCN=C(N)CSSCC(N)=NCCCCCCCCCC
inactive: dose: 0.39 mg/kg/injection, schedule: Q04DX002 (ip), vehicle: saline with Tween-80 95 % of control | dose: 0.78 mg/kg/injection, schedule: Q04DX002 (ip), vehicle: saline with Tween-80 100 % of control | dose: 1.56 mg/kg/injection, schedule: Q04DX002 (ip), vehicle: saline with Tween-80 105 % of control

CNNC(=O)NC
inactive: [10] 109 % of control | [11] 94 % of control

COc1ccc(CCC(C(=O)O)c2ccc(OC)c(OC)c2)cc1OC (stereo unspecified)
inactive: dose: 45.0 mg/kg/injection, schedule: Q01DX009 (ip), vehicle: Klucel (hydroxypropylcellulose) (HPC) 98 % of control and 100 % of control | [12] 96 % of control | dose: 65.0 mg/kg/injection, schedule: Q01DX009 (ip), vehicle: Klucel (hydroxypropylcellulose) (HPC) 93 % of control and 100 % of control | [13] 94 % of control and 104 % of control | [14] 103 % of control | dose: 150.0 mg/kg/injection, schedule: Q01DX009 (ip), vehicle: Klucel (hydroxypropylcellulose) (HPC) 93 % of control and 102 % of control | [15] 106 % of control | [16] 93 % of control and 96 % of control | dose: 400.0 mg/kg/injection, schedule: Q01DX009 (ip), vehicle: Klucel (hydroxypropylcellulose) (HPC) 101 % of control | [17] 98 % of control

Cc1c(Cl)c(C)c(Sc2c(C)c(Cl)c(C)c(Br)c2O)c(O)c1Br
inactive: [1] 87 % of control | [3] 100 % of control | [4] 88 % of control | [6] 107 % of control | [7] 93 % of control | [9] 113 % of control

CC1=C(C)CC(C(Cl)(Cl)Cl)C([N+](=O)[O-])C1 (stereo unspecified)
inactive: [2] 96 % of control

O=C(OCC1CCCO1)c1ccccc1O (stereo unspecified)
inactive: [14] 100 % of control | [16] 100 % of control | [17] 95 % of control

CC(=O)Nc1cc(C(=O)Nc2ccc(C)cc2C)ccc1C
inactive: [12] 92 % of control | [14] 92 % of control | [16] 92 % of control

Cc1ccc(NC(=O)Nc2ccc(C)c(NC(=O)Nc3ccc(C)c(Cl)c3)c2)cc1Cl
inactive: dose: 50.0 mg/kg/injection, schedule: Q01DX009 (ip), vehicle: saline with Tween-80 90 % of control | [2] 88 % of control | [18] 88 % of control | [5] 94 % of control

Cc1cccc(NC(=O)c2c(Br)c(Br)c(Br)c(Br)c2C(=O)O)c1C
inactive: [13] 100 % of control | [15] 103 % of control

Nc1c(Cl)cc(C(=O)NC2CC2)cc1Cl
inactive: dose: 6.25 mg/kg/injection, schedule: Q01DX009 (ip), vehicle: Klucel (hydroxypropylcellulose) (HPC) 103 % of control | dose: 12.5 mg/kg/injection, schedule: Q01DX009 (ip), vehicle: Klucel (hydroxypropylcellulose) (HPC) 94 % of control | [19] 92 % of control | dose: 25.0 mg/kg/injection, schedule: Q04DX003 (ip), vehicle: Klucel (hydroxypropylcellulose) (HPC) 104 % of control | [20] 97 % of control | [12] 98 % of control | [13] 100 % of control | [14] 104 % of control

COc1cc(Oc2c(OC)cc(N)cc2OC)cc(OC)c1OC
inactive: [18] 97 % of control | [21] 95 % of control | [22] 95 % of control

CON1C(=O)c2ccccc2S1=O (stereo unspecified)
inactive: dose: 100.0 mg/kg/injection, schedule: Q04DX002 (ip), vehicle: Klucel (hydroxypropylcellulose) (HPC) 96 % of control | dose: 200.0 mg/kg/injection, schedule: Q04DX002 (ip), vehicle: Klucel (hydroxypropylcellulose) (HPC) 92 % of control

CCCCCCCCCCCC[N+]1(C)CC[N+](C)(CCCCCCCCCCCC)CC1 (stereo unspecified)
inactive: dose: 100.0 mg/kg/injection, schedule: Q04DX002 (ip), vehicle: other 105 % of control | dose: 200.0 mg/kg/injection, schedule: Q04DX002 (ip), vehicle: other 101 % of control

CN1CCC(CNC(=O)CCCCCCCCC(=O)NCC2(c3ccccc3)CCN(C)CC2)(c2ccccc2)CC1
inactive: dose: 0.63 mg/kg/injection, schedule: Q01DX Z (ip), vehicle: saline 89 % of control | dose: 1.25 mg/kg/injection, schedule: Q01DX Z (ip), vehicle: saline 89 % of control | dose: 2.5 mg/kg/injection, schedule: Q01DX Z (ip), vehicle: saline 88 % of control | dose: 5.0 mg/kg/injection, schedule: Q01DX Z (ip), vehicle: saline 86 % of control | dose: 5.0 mg/kg/injection, schedule: Q04DX003 (ip), vehicle: saline with Tween-80 102 % of control

CN1CC2(CCN(CC3COc4ccccc4O3)CC2)OC1=O (stereo unspecified)
inactive: dose: 50.0 mg/kg/injection, schedule: Q01DX001 (ip), vehicle: Klucel (hydroxypropylcellulose) (HPC) 93 % of control | dose: 100.0 mg/kg/injection, schedule: Q01DX001 (ip), vehicle: Klucel (hydroxypropylcellulose) (HPC) 103 % of control | dose: 200.0 mg/kg/injection, schedule: Q01DX001 (ip), vehicle: Klucel (hydroxypropylcellulose) (HPC) 117 % of control | dose: 400.0 mg/kg/injection, schedule: Q01DX001 (ip), vehicle: Klucel (hydroxypropylcellulose) (HPC) 107 % of control

O=C(/C(=C\c1ccccc1)N1CCOCC1)c1ccc(Cl)cc1
inactive: [18] 92 % of control

CC(C)=CCN1CCC2(C)c3cc(O)ccc3CC1C2C (stereo unspecified)
inactive: dose: 15.62 mg/kg/injection, schedule: Q04DX003 (ip), vehicle: Klucel (hydroxypropylcellulose) (HPC) 96 % of control | [19] 110 % of control | dose: 31.25 mg/kg/injection, schedule: Q04DX003 (ip), vehicle: Klucel (hydroxypropylcellulose) (HPC) 100 % of control | [20] 110 % of control | dose: 62.5 mg/kg/injection, schedule: Q04DX003 (ip), vehicle: Klucel (hydroxypropylcellulose) (HPC) 100 % of control | [13] 110 % of control | dose: 125.0 mg/kg/injection, schedule: Q04DX003 (ip), vehicle: Klucel (hydroxypropylcellulose) (HPC) 94 % of control | [15] 98 % of control | dose: 250.0 mg/kg/injection, schedule: Q04DX003 (ip), vehicle: Klucel (hydroxypropylcellulose) (HPC) 102 % of control

O=C1C=C(c2ccccc2)Sc2ccccc2N1
inactive: [18] 97 % of control | [21] 100 % of control | [22] 97 % of control

C=C(C)C(=NC)Nc1ccc(Cl)c(Cl)c1
inactive: dose: 222.0 mg/kg/injection, schedule: Q01DX Z (ip), vehicle: methylcellulose (MC) 98 % of control | dose: 333.0 mg/kg/injection, schedule: Q01DX Z (ip), vehicle: methylcellulose (MC) 91 % of control | dose: 500.0 mg/kg/injection, schedule: Q01DX Z (ip), vehicle: methylcellulose (MC) 93 % of control

Cc1ncc(CO)c(/C=N/N=C(N)N)c1O
inactive: dose: 30.0 mg/kg/injection, schedule: Q01DX Z (oral), vehicle: methylcellulose (MC) 92 % of control | dose: 120.0 mg/kg/injection, schedule: Q01DX Z (oral), vehicle: methylcellulose (MC) 94 % of control | dose: 240.0 mg/kg/injection, schedule: Q01DX Z (oral), vehicle: methylcellulose (MC) 103 % of control

C/C(=C\c1ccccc1)c1ccccc1
inactive: dose: 50.0 mg/kg/injection, schedule: Q01DX001 (ip), vehicle: saline 91 % of control | [23] 97 % of control | [24] 95 % of control | dose: 400.0 mg/kg/injection, schedule: Q01DX001 (ip), vehicle: saline 101 % of control

CC(C)(C)S/C=C/C(N)=O
inactive: [10] 98 % of control | [23] 91 % of control | [11] 96 % of control | [24] 93 % of control | dose: 200.0 mg/kg/injection, schedule: Q01DX009 (ip), vehicle: saline 94 % of control

Cc1ccc(C(=O)/C=C/c2ccccc2O)cc1
inactive: [2] 100 % of control | [18] 105 % of control | [5] 98 % of control | [21] 100 % of control | [8] 94 % of control | [22] 98 % of control
